This is an account of results in PubChem BioAssay AID1996.

≈ marks a conversion by molar mass, not a printed value.

As a reminder, the solubility (kinetic) is the concentration staying in solution when a stock, usually in DMSO, is diluted into the medium.

The conditions of this data set: buffer; pH 7.4; 200.0 µM.
On to `Brc1ccc(CNc2ccc3ncccc3c2)cc1`, for which the kinetic solubility was below 0.3 µg/mL. Then `Cc1cc(C)nc(Nc2cccc(Cl)c2)n1.Cl`, with 5.9 µg/mL; and `O=C(Nc1ccc(Cl)cc1Cl)c1ccc2ncsc2c1`, with 0.4 µg/mL (≈ 1.24 µM); and `COc1cccc2cc(-c3nc4ccccc4[nH]3)c(=O)oc12`, with below 0.3 µg/mL. The figure for `CCN(CC(=O)NCc1cccs1)C(=O)Cc1ccc(Cl)c(Cl)c1` is above 57.8 µg/mL; for `CCC(CC)NC(=O)Cc1ccc(F)cc1` it is above 33.5 µg/mL; for `CCc1ccc[n+](-c2nc([O-])sc2C=O)c1` it is above 35.1 µg/mL. `O=C(Cc1ccccc1Cl)N1CCOCC1` yielded a solubility (kinetic) above 36 µg/mL. On to `CCOC(=O)c1sc2ncc([N+](=O)[O-])cc2c1N`, for which the kinetic solubility turned out to be 3.8 µg/mL (≈ 14.2 µM).

The compound `Cc1ccc(-n2nc3c(c2NC(=O)C(C)C)CS(=O)(=O)C3)c(C)c1` showed a solubility (kinetic) above 52.1 µg/mL.

On to `OCCC1CN(Cc2ccon2)CCN1Cc1ccc(F)c(F)c1` (configuration not stated), for which the kinetic solubility was 40.7 µg/mL (≈ 121 µM). In the case of `COc1ccc(OC)c(/C=C2\N=C(c3ccccc3)OC2=O)c1`, the solubility (kinetic) is 0.8 µg/mL (≈ 2.59 µM).

In turn, `COc1ccc(C(=O)NC2CCCc3ccccc32)cc1[N+](=O)[O-]` (configuration not stated) displayed a kinetic solubility of 2.4 µg/mL (≈ 7.35 µM). For the compound `Cl.Oc1cc2c(cc1O)C(c1ccccc1)CNCC2` (configuration not stated), the solubility (kinetic) was above 43.8 µg/mL. For the compound `CC1(C)C(=O)Nc2ccccc2N1C(=O)CSc1ncccn1`, the solubility (kinetic) was above 49.3 µg/mL. In turn, `CC1CCN(C(=O)COC(=O)c2ccccc2C(=O)c2ccccc2)CC1` registered a kinetic solubility above 54.8 µg/mL. The compound `Cc1nc(Cl)c(C#N)c2c1CCCC2` had a solubility (kinetic) of 17.5 µg/mL (≈ 84.7 µM). On to `COC(=O)c1ccccc1NC(=O)Cn1cnc([N+](=O)[O-])c1`, for which the kinetic solubility was above 45.6 µg/mL. In turn, `Cc1cc(SCC(=O)NC2CCCC2)nc2ccccc12` came in with a solubility (kinetic) of 8.8 µg/mL (≈ 29.3 µM). As to `COc1nc(OC)nc(N2CCC(C(=O)NC3CC3)CC2)n1`, the kinetic solubility worked out at 37 µg/mL (≈ 120 µM). `CCN(CC(=O)NC(=O)NCc1ccccc1)Cc1ccccc1` had a kinetic solubility of 40.9 µg/mL (≈ 126 µM).

In turn, `CCOc1ccc2[nH]c3c(NCCCOC)ncnc3c2c1` came in with a kinetic solubility of 36.4 µg/mL (≈ 121 µM). Then `CC(C)CN(C(=O)C1CCCC1)C1CCS(=O)(=O)C1` (configuration not stated), with above 43.1 µg/mL.

`N#CCN1C(=O)C(=O)N(Cc2cccc(C(F)(F)F)c2)C1=O` gave a solubility (kinetic) of 42.6 µg/mL (≈ 137 µM). Then `COc1ccc(C(C)=O)cc1CN1C(=O)NC(CC(C)C)C1=O` (configuration not stated), with above 47.8 µg/mL; and `CSc1ncc(Cl)c(C(=O)Nc2ccccc2C)n1`, with 1.3 µg/mL (≈ 4.43 µM). Then `COc1ccc(N(CC(=O)NCCSc2ccccc2)S(=O)(=O)c2ccccc2)c(OC)c1`, with 3.6 µg/mL (≈ 7.4 µM); and `O=C1NC(=O)N(Cc2ccc(F)cc2)C(=O)/C1=C\C=C\c1ccco1`, with 10 µg/mL (≈ 29.4 µM); and `CN(CC(=O)Nc1cccc(F)c1)CC(=O)Nc1ccccc1[N+](=O)[O-]`, with 49.7 µg/mL (≈ 138 µM). For `NS(=O)(=O)c1ccc(CNC(=S)NC2CCCC2)cc1`, the kinetic solubility was 46.9 µg/mL (≈ 150 µM). The compound `CCOC(=O)N1CCN(C(=O)c2ccc3ccccc3c2)CC1` yielded a solubility (kinetic) above 46.9 µg/mL. The compound `CN(Cc1cccnc1)C(=O)CNC(=O)COc1ccccc1` displayed a kinetic solubility above 47 µg/mL. As for `Cc1ccsc1C(=O)OCC(=O)Nc1ccc(Cl)cn1`, the solubility (kinetic) came out at 14.7 µg/mL (≈ 47.3 µM).

Compound `Cc1ccc(C(=O)NC(C)c2ccc(C)c(C)c2)s1` (configuration not stated) displayed a kinetic solubility of 3.5 µg/mL (≈ 12.8 µM). `O=C(CCn1c(=O)oc2ccccc21)NCCCN1CCOCC1` yielded a solubility (kinetic) of 43.2 µg/mL (≈ 130 µM).

For the compound `O=C(OCC(=O)N1CCCC1=O)c1cc2ccccc2o1`, the solubility (kinetic) is above 43.1 µg/mL. As to `O=C(NC1CC2CCCC(C1)N2Cc1ccccc1)C1CCCCC1` (configuration not stated), the solubility (kinetic) is above 51.1 µg/mL.

The compound `NC(N)=NC1=NC(=O)C(Cc2ccccc2)S1` (configuration not stated) registered a solubility (kinetic) above 37.2 µg/mL. In the case of `CC(C(=O)N1CCc2ccccc21)N1CCN(Cc2ccccc2)CC1` (configuration not stated), the solubility (kinetic) is above 52.4 µg/mL. Regarding `Cc1cccn2c(=O)c3cc(C(=O)N4CCCCC4C)sc3nc12` (configuration not stated), the solubility (kinetic) is 13.1 µg/mL (≈ 38.4 µM). Then `COc1ccccc1N1CCN(C(=O)c2ccco2)CC1`, with above 42.9 µg/mL; and `COc1ccc(-c2[nH]ncc2CNC(C)Cc2cccc(C)n2)cc1F` (configuration not stated), with above 53.2 µg/mL; and `COCCn1c(/C=C/c2ccccc2)nc2ccccc21`, with above 41.8 µg/mL. Compound `Cc1ccc(-n2c(CNCc3ccc(F)cc3)nc3ccccc3c2=O)cc1` gave a kinetic solubility of 35.1 µg/mL (≈ 94 µM). `O=C(CS(=O)CC(=O)Nc1cccnc1)Nc1ccc(F)cc1` (configuration not stated) came in with a solubility (kinetic) above 50.3 µg/mL. In the case of `CN1CCN(Cc2ccc3ccccc3c2)CC1`, the kinetic solubility was determined as 20.6 µg/mL (≈ 85.7 µM). Then `COC(=O)/C=C1\SC(=NC(=O)c2ccc(C)cc2)NC1=O`, with 44.5 µg/mL (≈ 146 µM); and `COc1cc(C(=O)COC(=O)c2ccncc2)cc(OC)c1OC`, with above 49.7 µg/mL. The compound `Cc1onc(C(=O)NC2CCCCC2)c1[N+](=O)[O-]` came in with a solubility (kinetic) above 38 µg/mL. Then `c1ccc(-c2csc(-c3cccnc3)n2)cc1`, with 8.5 µg/mL (≈ 35.7 µM).

In the case of `C=CCN(CC=C)C(=S)NC(=O)c1ccc(OC)cc1`, the kinetic solubility was above 43.6 µg/mL. For `Cc1cccc(NC(=O)Nc2ccc(S(N)(=O)=O)cc2)c1`, the solubility (kinetic) was determined as 22.1 µg/mL (≈ 72.4 µM).
